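48-hour exposure; five concentrations; linearly interpolated endpoints. GI50 = concentration required for 50% inhibition of growth.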 Calls of active or inactive are those of the source. No stated cut-off is given here; in the data, active = GI50 up to about 1.1 µM and inactive = higher.
Legend:
Assay in all cases: NCI tumour cell line growth inhibition, 48 h
CAKI-1 = tested on: CAKI-1
UO-31 = tested on: UO-31
OVCAR-8 = tested on: OVCAR-8
LOX IMVI = tested on: LOX IMVI
PC-3 = tested on: PC-3
NCI-H522 = tested on: NCI-H522
OVCAR-5 = tested on: OVCAR-5
SK-MEL-2 = tested on: SK-MEL-2
HL-60 = tested on: HL-60
TK-10 = tested on: TK-10
EKVX = tested on: EKVX
BT-549 = tested on: BT-549
SW-620 = tested on: SW-620
SK-MEL-5 = tested on: SK-MEL-5
RPMI-8226 = tested on: RPMI-8226
ACHN = tested on: ACHN
NCI-H226 = tested on: NCI-H226
786-0 = tested on: 786-0
SNB-19 = tested on: SNB-19
A549 = tested on: A549
UACC-257 = tested on: UACC-257
U-251 = tested on: U-251
COLO 205 = tested on: COLO 205
HCC 2998 = tested on: HCC 2998
MDA-MB-435 = tested on: MDA-MB-435
SF-268 = tested on: SF-268
SNB-75 = tested on: SNB-75
MCF7 = tested on: MCF7
HOP-92 = tested on: HOP-92
CCRF-CEM = tested on: CCRF-CEM
OVCAR-4 = tested on: OVCAR-4
NCI-H23 = tested on: NCI-H23
KM12 = tested on: KM12
NCI-H460 = tested on: NCI-H460
NCI/ADR-RES = tested on: NCI/ADR-RES
Malme-3M = tested on: Malme-3M
HCT-116 = tested on: HCT-116
HCT-15 = tested on: HCT-15
MOLT-4 = tested on: MOLT-4
Hs-578T = tested on: Hs-578T
M14 = tested on: M14
T47D = tested on: T47D
MDA-N = tested on: MDA-N
HT-29 = tested on: HT-29
SF-539 = tested on: SF-539
SK-MEL-28 = tested on: SK-MEL-28
A498 = tested on: A498
SN12C = tested on: SN12C
UACC-62 = tested on: UACC-62
SK-OV-3 = tested on: SK-OV-3
IGROV-1 = tested on: IGROV-1
HOP-62 = tested on: HOP-62
SF-295 = tested on: SF-295
K562 = tested on: K562
DU-145 = tested on: DU-145
MDA-MB-231 = tested on: MDA-MB-231
RXF 393 = tested on: RXF 393
OVCAR-3 = tested on: OVCAR-3

Structure (SMILES): O=C1c2c(O)cccc2C(C2OC(CO)C(O)C(O)C2O)c2cc(CO)cc(O)c21 (configuration not stated)
- GI50 (CAKI-1): > 100 µM (inactive)
- GI50 (UO-31): > 100 µM (inactive)
- GI50 (OVCAR-8): > 100 µM (inactive)
- GI50 (LOX IMVI): > 100 µM (inactive)
- GI50 (PC-3): > 100 µM (inactive)
- GI50 (NCI-H522): > 100 µM (inactive)
- GI50 (OVCAR-5): > 100 µM (inactive)
- GI50 (SK-MEL-2): > 100 µM (inactive)
- GI50 (HL-60): > 100 µM (inactive)
- GI50 (TK-10): > 100 µM (inactive)
- GI50 (EKVX): > 100 µM (inactive)
- GI50 (BT-549): > 100 µM (inactive)
- GI50 (SW-620): > 100 µM (inactive)
- GI50 (SK-MEL-5): > 100 µM (inactive)
- GI50 (RPMI-8226): > 100 µM (inactive)
- GI50 (ACHN): > 100 µM (inactive)
- GI50 (NCI-H226): > 100 µM (inactive)
- GI50 (786-0): > 100 µM (inactive)
- GI50 (SNB-19): > 100 µM (inactive)
- GI50 (A549): > 100 µM (inactive)
- GI50 (UACC-257): > 100 µM (inactive)
- GI50 (U-251): > 100 µM (inactive)
- GI50 (COLO 205): > 100 µM (inactive)
- GI50 (HCC 2998): > 100 µM (inactive)
- GI50 (MDA-MB-435): > 100 µM (inactive)
- GI50 (SF-268): > 100 µM (inactive)
- GI50 (SNB-75): > 100 µM (inactive)
- GI50 (MCF7): > 100 µM (inactive)
- GI50 (HOP-92): > 100 µM (inactive)
- GI50 (CCRF-CEM): > 100 µM (inactive)
- GI50 (OVCAR-4): > 100 µM (inactive)
- GI50 (NCI-H23): > 100 µM (inactive)
- GI50 (KM12): > 100 µM (inactive)
- GI50 (NCI-H460): > 100 µM (inactive)
- GI50 (NCI/ADR-RES): > 100 µM (inactive)
- GI50 (Malme-3M): > 100 µM (inactive)
- GI50 (HCT-116): > 100 µM (inactive)
- GI50 (HCT-15): > 100 µM
- GI50 (MOLT-4): > 100 µM (inactive)
- GI50 (Hs-578T): > 100 µM (inactive)
- GI50 (M14): > 100 µM (inactive)
- GI50 (T47D): > 100 µM (inactive)
- GI50 (MDA-N): > 100 µM (inactive)
- GI50 (HT-29): > 100 µM (inactive)
- GI50 (SF-539): > 100 µM (inactive)
- GI50 (SK-MEL-28): > 100 µM (inactive)
- GI50 (A498): > 100 µM (inactive)
- GI50 (SN12C): > 100 µM (inactive)
- GI50 (UACC-62): > 100 µM (inactive)
- GI50 (SK-OV-3): > 100 µM (inactive)
- GI50 (IGROV-1): > 100 µM (inactive)
- GI50 (HOP-62): > 100 µM (inactive)
- GI50 (SF-295): > 100 µM (inactive)
- GI50 (K562): > 100 µM (inactive)
- GI50 (DU-145): > 100 µM (inactive)
- GI50 (MDA-MB-231): > 100 µM (inactive)
- GI50 (RXF 393): > 100 µM (inactive)

Structure (SMILES): CC(=N/NC(=S)N1CCCCCC1)/C(C)=N\NC(=S)N1CCCCCC1
- GI50 (CAKI-1): 4.91 µM (inactive)
- GI50 (OVCAR-3): 5.6 µM (inactive)
- GI50 (UO-31): 3.75 µM (inactive)
- GI50 (OVCAR-8): 15.7 µM (inactive)
- GI50 (LOX IMVI): > 10 µM (inactive)
- GI50 (PC-3): 5.86 µM (inactive)
- GI50 (NCI-H522): 4.14 µM (inactive)
- GI50 (OVCAR-5): 7.89 µM (inactive)
- GI50 (SK-MEL-2): 1.97 µM (inactive)
- GI50 (TK-10): 4.34 µM (inactive)
- GI50 (EKVX): 3.85 µM (inactive)
- GI50 (BT-549): 5.27 µM (inactive)
- GI50 (SW-620): 2.37 µM (inactive)
- GI50 (SK-MEL-5): 4.86 µM (inactive)
- GI50 (RPMI-8226): 5.66 µM (inactive)
- GI50 (ACHN): 3.38 µM (inactive)
- GI50 (NCI-H226): 3.42 µM (inactive)
- GI50 (786-0): 4.54 µM (inactive)
- GI50 (SNB-19): 6.18 µM (inactive)
- GI50 (A549): 5.3 µM (inactive)
- GI50 (UACC-257): 5.2 µM (inactive)
- GI50 (U-251): 2.43 µM (inactive)
- GI50 (COLO 205): 5.43 µM (inactive)
- GI50 (HCC 2998): 3.12 µM (inactive)
- GI50 (MDA-MB-435): 1.83 µM (inactive)
- GI50 (SF-268): 3.45 µM (inactive)
- GI50 (SNB-75): 5.09 µM (inactive)
- GI50 (MCF7): 4.7 µM (inactive)
- GI50 (HOP-92): 1.32 µM (inactive)
- GI50 (OVCAR-4): 1.79 µM (inactive)
- GI50 (NCI-H23): 4.83 µM (inactive)
- GI50 (KM12): 4.59 µM (inactive)
- GI50 (NCI-H460): 4.38 µM (inactive)
- GI50 (NCI/ADR-RES): 5.25 µM (inactive)
- GI50 (Malme-3M): 5.5 µM (inactive)
- GI50 (HCT-116): 5.08 µM (inactive)
- GI50 (HCT-15): 4.34 µM
- GI50 (MOLT-4): > 100 µM (inactive)
- GI50 (Hs-578T): 3.87 µM (inactive)
- GI50 (M14): 5.25 µM (inactive)
- GI50 (T47D): 1.75 µM (inactive)
- GI50 (MDA-N): 6.55 µM (inactive)
- GI50 (HT-29): 2.63 µM (inactive)
- GI50 (SF-539): 20.7 µM (inactive)
- GI50 (SK-MEL-28): 1.88 µM (inactive)
- GI50 (A498): 1.78 µM (inactive)
- GI50 (SN12C): 1.91 µM (inactive)
- GI50 (UACC-62): 4.29 µM (inactive)
- GI50 (SK-OV-3): 3.88 µM (inactive)
- GI50 (IGROV-1): 3.84 µM (inactive)
- GI50 (HOP-62): 4.98 µM (inactive)
- GI50 (SF-295): 4.93 µM (inactive)
- GI50 (K562): 13.2 µM (inactive)
- GI50 (DU-145): 3.21 µM (inactive)
- GI50 (MDA-MB-231): 7.98 µM (inactive)
- GI50 (RXF 393): 3.77 µM (inactive)

Structure (SMILES): O=C(O)C(Cc1c[nH]c2ccccc12)N1C(=O)c2ccccc2C1=O (configuration not stated)
- GI50 (CAKI-1): > 100 µM (inactive)
- GI50 (OVCAR-3): > 100 µM (inactive)
- GI50 (UO-31): > 100 µM (inactive)
- GI50 (OVCAR-8): 7.21 µM (inactive)
- GI50 (LOX IMVI): > 100 µM (inactive)
- GI50 (PC-3): > 100 µM (inactive)
- GI50 (NCI-H522): > 100 µM (inactive)
- GI50 (OVCAR-5): > 100 µM (inactive)
- GI50 (SK-MEL-2): > 100 µM (inactive)
- GI50 (TK-10): > 100 µM (inactive)
- GI50 (EKVX): > 100 µM (inactive)
- GI50 (BT-549): > 100 µM (inactive)
- GI50 (SW-620): > 100 µM (inactive)
- GI50 (SK-MEL-5): > 100 µM (inactive)
- GI50 (RPMI-8226): > 100 µM (inactive)
- GI50 (ACHN): > 100 µM (inactive)
- GI50 (NCI-H226): > 100 µM (inactive)
- GI50 (786-0): > 100 µM (inactive)
- GI50 (SNB-19): > 100 µM (inactive)
- GI50 (A549): > 100 µM (inactive)
- GI50 (UACC-257): > 100 µM (inactive)
- GI50 (U-251): > 100 µM (inactive)
- GI50 (COLO 205): > 100 µM (inactive)
- GI50 (HCC 2998): > 100 µM (inactive)
- GI50 (MDA-MB-435): > 100 µM (inactive)
- GI50 (SF-268): > 100 µM (inactive)
- GI50 (SNB-75): > 100 µM (inactive)
- GI50 (MCF7): > 100 µM (inactive)
- GI50 (HOP-92): 0.785 µM (active)
- GI50 (OVCAR-4): > 100 µM (inactive)
- GI50 (NCI-H23): > 100 µM (inactive)
- GI50 (KM12): > 100 µM (inactive)
- GI50 (NCI-H460): > 100 µM (inactive)
- GI50 (NCI/ADR-RES): > 100 µM (inactive)
- GI50 (Malme-3M): > 100 µM (inactive)
- GI50 (HCT-116): > 100 µM (inactive)
- GI50 (HCT-15): > 100 µM
- GI50 (Hs-578T): > 100 µM (inactive)
- GI50 (M14): > 100 µM (inactive)
- GI50 (T47D): > 100 µM (inactive)
- GI50 (MDA-N): > 100 µM (inactive)
- GI50 (HT-29): > 100 µM (inactive)
- GI50 (SF-539): > 100 µM (inactive)
- GI50 (SK-MEL-28): > 100 µM (inactive)
- GI50 (A498): > 100 µM (inactive)
- GI50 (SN12C): > 100 µM (inactive)
- GI50 (UACC-62): > 100 µM (inactive)
- GI50 (SK-OV-3): > 100 µM (inactive)
- GI50 (IGROV-1): 16.3 µM (inactive)
- GI50 (HOP-62): > 100 µM (inactive)
- GI50 (SF-295): > 100 µM (inactive)
- GI50 (DU-145): > 100 µM (inactive)
- GI50 (MDA-MB-231): > 100 µM (inactive)
- GI50 (RXF 393): > 100 µM (inactive)
